Source: ChEMBL document CHEMBL3804822 (Bioorg Med Chem, 2016)
The source made the active and inactive calls. No cut-off for these calls is given here.

Tests used:
[1] = molecular target: T1, Estrogen receptor (Homo sapiens, UniProt P03372); experiment: Displacement of Fluormone ES2 from human recombinant full length untagged-ERalpha by fluorescence polarization competition binding assay
T1 sequence (P03372 whole entry): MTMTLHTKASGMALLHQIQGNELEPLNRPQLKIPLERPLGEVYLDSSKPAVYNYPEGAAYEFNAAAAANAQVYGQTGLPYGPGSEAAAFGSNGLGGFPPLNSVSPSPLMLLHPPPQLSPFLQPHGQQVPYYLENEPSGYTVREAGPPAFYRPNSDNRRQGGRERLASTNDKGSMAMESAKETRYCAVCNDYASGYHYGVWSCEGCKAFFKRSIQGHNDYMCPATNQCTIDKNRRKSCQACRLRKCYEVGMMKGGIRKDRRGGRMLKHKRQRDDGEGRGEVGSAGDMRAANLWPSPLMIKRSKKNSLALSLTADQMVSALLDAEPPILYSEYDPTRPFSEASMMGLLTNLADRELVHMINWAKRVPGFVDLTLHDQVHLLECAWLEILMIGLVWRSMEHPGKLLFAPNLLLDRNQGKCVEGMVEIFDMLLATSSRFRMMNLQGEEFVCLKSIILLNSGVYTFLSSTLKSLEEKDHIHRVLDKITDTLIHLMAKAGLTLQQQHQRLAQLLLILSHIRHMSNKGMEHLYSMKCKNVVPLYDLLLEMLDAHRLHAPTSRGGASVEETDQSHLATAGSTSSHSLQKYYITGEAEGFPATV

[2] = molecular target: T1, Estrogen receptor; experiment: Antagonist activity at ERalpha (unknown origin) transfected in 17beta-estradiol induced-HEK293 cells assessed as inhibition of estradiol-mediated protein transcriptional activity after 16 to 20 hrs by Luciferase reporter gene assay
[3] = molecular target: T2, Estrogen receptor (Homo sapiens) (UniProt P03372); experiment: Down regulation of ERalpha in human MCF7 cells after 6 hrs in presence of 10 uM proteasome inhibitor MG132 by Western blot analysis; type: cell-based
T2 sequence (whole entry): T1 sequence (P03372 whole entry)

[4] = molecular target: T2, Estrogen receptor (Homo sapiens); experiment: Down regulation of ERalpha in human MCF7 cells at 10 uM after 6 hrs by Western blot analysis in absence of MG132

Row | Compound | IC50 [1] [nM] | IC50 [2] [nM] | Activity [3] | Activity [4]
1 | CCCCCCCCCCCCCCCCCCNCCOc1ccc(C(=O)c2c(-c3ccc(O)cc3)sc3cc(O)ccc23)cc1 | 1.8 | – | – | –
2 | CCCCCCCCCCNCCOc1ccc(C(=O)c2c(-c3ccc(O)cc3)sc3cc(O)ccc23)cc1 | 40 | 0.68 | inactive | Dose-dependent effect
3 | CCCCCCNCCOc1ccc(C(=O)c2c(-c3ccc(O)cc3)sc3cc(O)ccc23)cc1 | 61 | – | – | –
4 | CCCCCCCCCCCCNCCOc1ccc(C(=O)c2c(-c3ccc(O)cc3)sc3cc(O)ccc23)cc1 | 5.9 | 0.09 | inactive | Dose-dependent effect
5 | CCCCCCCCCCCCCCCCNCCOc1ccc(C(=O)c2c(-c3ccc(O)cc3)sc3cc(O)ccc23)cc1 | 11 | – | – | –
6 | CCCCCCCCNCCOc1ccc(C(=O)c2c(-c3ccc(O)cc3)sc3cc(O)ccc23)cc1 | 49 | – | – | –
7 | CCCCCCCCCCCCCCNCCOc1ccc(C(=O)c2c(-c3ccc(O)cc3)sc3cc(O)ccc23)cc1 | 28 | – | – | –
